Test results published in US8450315B2, “Phosphoinositide 3-kinase inhibitor compounds and methods of use” (Genentech, Inc., priority 2006, dated 2013).

What was measured:
[1] = molecular target: human PI3K isoform beta (p110 beta) (Homo sapiens, UniProt P42338); assay: p110 isoform selectivity scintillation proximity assay (SPA), beta isoform; type: biochemical; settings: fold potency over beta relative to alpha, calculated from IC50 values (SPA)
Experimental: (§1) Binding of Formula Ia and Ib compounds from Tables 1a and 1b to purified preparations of p110 isoforms alpha, beta, delta, and gamma was measured by a Scintillation Proximity Assay (SPA) to determine binding activity (IC50 μMol) and selectivity of binding of beta, delta, and gamma isoforms relative to alpha (Example 365). These values are expressed in Table 2.
(§2) The ability of Formula Ia and Ib compounds from Tables 1a and 1b to inhibit the lipid kinase activity of purified preparations of human PI3K isoforms alpha, beta, delta, and gamma was determined by a radiometric scintillation proximity assay (SPA, GE Healthcare, Amersham Biosciences). Concentration dependent inhibition at 50% (IC50 μMol) was determined for all four isoforms […] and fold potency over beta, delta, and gamma relative to alpha was calculated for a selection of compounds in Table 2. Each compound has a p110 alpha IC50<1 μMol.

[2] = molecular target: human PI3K isoform delta (p110 delta) (Homo sapiens, UniProt O00329); assay: p110 isoform selectivity scintillation proximity assay (SPA), delta isoform; type: biochemical; settings: fold potency over delta relative to alpha, calculated from IC50 values (SPA)
Experimental: as §1, §2

[3] = molecular target: human PI3K isoform gamma (p110 gamma) (Homo sapiens, UniProt P48736); assay: p110 isoform selectivity scintillation proximity assay (SPA), gamma isoform; type: biochemical; settings: fold potency over gamma relative to alpha, calculated from IC50 values (SPA)
Experimental: as §1, §2

[4] = cited from earlier work
[5] = cited from earlier work; remark: listed apart in the source

human PI3K isoform gamma (p110 gamma), sequence (P48736 whole entry, canonical isoform): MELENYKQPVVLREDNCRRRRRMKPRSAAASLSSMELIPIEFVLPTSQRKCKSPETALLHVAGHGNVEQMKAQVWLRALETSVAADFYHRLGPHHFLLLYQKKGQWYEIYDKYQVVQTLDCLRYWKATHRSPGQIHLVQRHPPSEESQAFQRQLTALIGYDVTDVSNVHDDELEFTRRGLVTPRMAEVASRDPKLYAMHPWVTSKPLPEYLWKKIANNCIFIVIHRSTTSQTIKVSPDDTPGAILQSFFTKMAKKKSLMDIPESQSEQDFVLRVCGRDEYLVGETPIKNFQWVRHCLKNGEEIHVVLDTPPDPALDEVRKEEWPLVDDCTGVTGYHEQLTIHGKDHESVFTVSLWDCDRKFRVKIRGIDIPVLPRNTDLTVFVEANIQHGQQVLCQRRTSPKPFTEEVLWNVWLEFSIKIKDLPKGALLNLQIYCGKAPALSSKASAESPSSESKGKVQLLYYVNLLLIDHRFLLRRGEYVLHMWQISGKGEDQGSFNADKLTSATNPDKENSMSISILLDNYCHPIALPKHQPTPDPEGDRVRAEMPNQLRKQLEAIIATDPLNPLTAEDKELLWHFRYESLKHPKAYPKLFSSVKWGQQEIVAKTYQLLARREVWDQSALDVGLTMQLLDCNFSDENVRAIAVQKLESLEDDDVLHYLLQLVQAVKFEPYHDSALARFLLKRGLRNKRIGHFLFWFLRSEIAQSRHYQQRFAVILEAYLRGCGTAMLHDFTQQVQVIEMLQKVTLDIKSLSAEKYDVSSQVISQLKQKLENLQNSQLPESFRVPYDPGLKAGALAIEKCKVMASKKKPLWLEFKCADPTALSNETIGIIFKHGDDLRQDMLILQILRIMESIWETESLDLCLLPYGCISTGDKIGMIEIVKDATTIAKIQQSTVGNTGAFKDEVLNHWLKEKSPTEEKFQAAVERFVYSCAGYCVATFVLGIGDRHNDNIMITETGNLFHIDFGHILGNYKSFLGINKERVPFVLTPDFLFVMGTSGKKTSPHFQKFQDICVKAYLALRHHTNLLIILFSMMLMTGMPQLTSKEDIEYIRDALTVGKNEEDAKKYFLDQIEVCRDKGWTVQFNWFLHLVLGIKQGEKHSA
human PI3K isoform beta (p110 beta), sequence (P42338 whole entry, canonical isoform): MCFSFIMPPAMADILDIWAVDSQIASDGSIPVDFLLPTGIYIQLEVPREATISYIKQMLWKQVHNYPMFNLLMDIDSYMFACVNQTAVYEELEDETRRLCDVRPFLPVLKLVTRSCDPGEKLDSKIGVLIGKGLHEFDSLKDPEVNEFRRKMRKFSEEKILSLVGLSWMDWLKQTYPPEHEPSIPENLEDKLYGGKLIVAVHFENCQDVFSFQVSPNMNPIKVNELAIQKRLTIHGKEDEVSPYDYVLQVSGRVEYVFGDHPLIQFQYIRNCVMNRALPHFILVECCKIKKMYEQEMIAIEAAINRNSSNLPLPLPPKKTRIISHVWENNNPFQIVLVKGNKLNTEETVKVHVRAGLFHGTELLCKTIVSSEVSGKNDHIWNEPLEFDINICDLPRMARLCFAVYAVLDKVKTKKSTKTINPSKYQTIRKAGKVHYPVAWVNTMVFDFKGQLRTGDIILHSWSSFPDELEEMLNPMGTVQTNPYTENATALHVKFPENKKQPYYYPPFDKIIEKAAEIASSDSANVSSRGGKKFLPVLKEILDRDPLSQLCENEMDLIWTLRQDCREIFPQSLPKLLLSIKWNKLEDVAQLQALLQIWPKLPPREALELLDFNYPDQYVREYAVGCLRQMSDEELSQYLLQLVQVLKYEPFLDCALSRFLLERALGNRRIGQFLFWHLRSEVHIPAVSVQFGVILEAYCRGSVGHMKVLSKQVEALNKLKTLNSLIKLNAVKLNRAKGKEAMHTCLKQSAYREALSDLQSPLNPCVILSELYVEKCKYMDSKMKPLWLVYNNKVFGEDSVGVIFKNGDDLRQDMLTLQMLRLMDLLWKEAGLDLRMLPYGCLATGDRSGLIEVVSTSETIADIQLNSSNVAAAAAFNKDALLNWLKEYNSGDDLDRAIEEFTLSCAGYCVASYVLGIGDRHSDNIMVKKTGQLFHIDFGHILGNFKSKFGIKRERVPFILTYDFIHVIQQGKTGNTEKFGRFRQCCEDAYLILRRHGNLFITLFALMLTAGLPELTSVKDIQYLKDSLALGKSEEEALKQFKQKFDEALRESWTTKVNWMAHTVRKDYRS
human PI3K isoform beta (p110 beta), sequence (P27986 whole entry partner, canonical isoform): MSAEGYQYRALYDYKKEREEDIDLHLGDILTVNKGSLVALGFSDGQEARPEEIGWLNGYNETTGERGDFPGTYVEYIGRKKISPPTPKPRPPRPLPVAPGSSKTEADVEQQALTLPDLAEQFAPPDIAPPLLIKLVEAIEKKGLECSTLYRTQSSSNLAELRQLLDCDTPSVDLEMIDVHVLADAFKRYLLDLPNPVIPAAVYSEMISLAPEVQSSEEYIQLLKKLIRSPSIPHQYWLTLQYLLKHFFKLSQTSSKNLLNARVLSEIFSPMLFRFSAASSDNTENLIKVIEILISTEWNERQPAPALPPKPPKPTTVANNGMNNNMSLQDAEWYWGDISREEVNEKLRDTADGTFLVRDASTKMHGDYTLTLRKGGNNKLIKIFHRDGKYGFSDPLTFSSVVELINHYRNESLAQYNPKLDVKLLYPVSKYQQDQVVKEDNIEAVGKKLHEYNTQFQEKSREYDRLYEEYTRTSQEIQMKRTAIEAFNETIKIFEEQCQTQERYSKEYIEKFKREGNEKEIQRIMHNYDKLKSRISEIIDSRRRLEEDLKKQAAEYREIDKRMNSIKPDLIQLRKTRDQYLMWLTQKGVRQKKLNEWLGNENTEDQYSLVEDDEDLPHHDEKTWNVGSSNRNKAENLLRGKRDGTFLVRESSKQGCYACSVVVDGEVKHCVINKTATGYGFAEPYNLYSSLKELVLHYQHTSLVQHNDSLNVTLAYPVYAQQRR
human PI3K isoform delta (p110 delta), sequence (O00329 whole entry, canonical isoform): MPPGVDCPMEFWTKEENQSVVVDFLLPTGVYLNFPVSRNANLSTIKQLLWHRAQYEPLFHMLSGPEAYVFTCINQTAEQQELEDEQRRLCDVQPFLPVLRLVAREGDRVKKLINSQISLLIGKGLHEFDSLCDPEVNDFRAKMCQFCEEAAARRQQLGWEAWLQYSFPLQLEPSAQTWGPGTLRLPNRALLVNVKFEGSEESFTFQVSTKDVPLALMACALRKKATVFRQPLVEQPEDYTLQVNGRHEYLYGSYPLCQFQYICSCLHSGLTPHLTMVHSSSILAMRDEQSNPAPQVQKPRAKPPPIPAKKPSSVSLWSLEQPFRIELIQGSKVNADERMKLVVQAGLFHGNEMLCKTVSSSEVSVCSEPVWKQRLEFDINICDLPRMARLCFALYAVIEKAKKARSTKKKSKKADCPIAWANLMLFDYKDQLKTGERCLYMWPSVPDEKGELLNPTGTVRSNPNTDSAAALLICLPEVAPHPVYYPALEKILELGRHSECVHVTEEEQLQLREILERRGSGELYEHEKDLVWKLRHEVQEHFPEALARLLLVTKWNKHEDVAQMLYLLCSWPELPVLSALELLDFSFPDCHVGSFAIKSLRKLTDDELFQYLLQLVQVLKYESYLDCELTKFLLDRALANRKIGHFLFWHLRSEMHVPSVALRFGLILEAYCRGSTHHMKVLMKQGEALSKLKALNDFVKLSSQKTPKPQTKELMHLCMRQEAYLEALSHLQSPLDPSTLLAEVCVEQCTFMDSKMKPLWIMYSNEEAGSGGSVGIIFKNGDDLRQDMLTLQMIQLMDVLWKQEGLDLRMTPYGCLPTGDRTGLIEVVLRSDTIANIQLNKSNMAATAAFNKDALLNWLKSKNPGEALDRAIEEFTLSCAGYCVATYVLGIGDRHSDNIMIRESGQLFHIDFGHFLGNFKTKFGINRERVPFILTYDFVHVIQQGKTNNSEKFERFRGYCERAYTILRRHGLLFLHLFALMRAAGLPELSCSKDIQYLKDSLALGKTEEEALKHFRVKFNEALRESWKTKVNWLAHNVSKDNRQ
human PI3K isoform delta (p110 delta), sequence (P27986 whole entry partner, canonical isoform): as the sequence (P27986 whole entry partner, canonical isoform) above

| Compound | alpha/beta [1] | alpha/delta [2] | alpha/gamma [3] | aqueous solubility [4] | metabolism in animals ([5]; animals) | pharmacokinetics ([5]; in vivo) |
| --- | --- | --- | --- | --- | --- | --- |
| Cc1c(-c2cccc(S(C)(=O)=O)c2)sc2c(N3CCOCC3)nc(-c3cnc4[nH]ccc4c3)nc12 [Compound 395, 7-methyl-6-(3-(methylsulfonyl)phenyl)-4-morpholino-2-(1H-pyrrolo[2,3-b]pyridin-5-yl)thieno[3,2-d]pyrimidine] | >10 | >10 | >10 |  |  |  |
| CN(Cc1cc2c(N3CCOCC3)nc(-c3cnc4[nH]ccc4c3)nc2s1)S(C)(=O)=O [Compound 417, N-methyl, N-methylsulfonyl(4-morpholino-2-(1H-pyrrolo[2,3-b]pyridin-5-yl)thieno[2,3-d]pyrimidin-6-yl)methanamine] | >10 | >10 | >10 |  |  |  |
| CS(=O)(=O)c1cccc(-c2cc3nc(-c4cnc5[nH]ccc5c4)nc(N4CCOCC4)c3s2)c1 [Compound 418, 6-(3-(methylsulfonyl)phenyl)-4-morpholino-2-(1H-pyrrolo[2,3-b]pyridin-5-yl)thieno[3,2-d]pyrimidine] | >10 | 10 | >10 |  |  |  |
| CC(C)(O)c1cc2nc(-c3cnc4[nH]ccc4c3)nc(N3CCOCC3)c2s1 [Compound 422, 2-(4-morpholino-2-(1H-pyrrolo[2,3-b]pyridin-5-yl)thieno[3,2-d]pyrimidin-6-yl)-propan-2-ol] | >10 | <10 | >10 |  |  |  |
| c1cc2cc(-c3nc(N4CCOCC4)c4sc(-c5ccc(N6CCOCC6)nc5)cc4n3)cnc2[nH]1 [Compound 428, 4-morpholino-6-(6-morpholinopyridin-3-yl)-2-(1H-pyrrolo[2,3-b]pyridin-5-yl)thieno[3,2-d]pyrimidine] | >10 | >10 | >10 |  |  |  |
| Nc1nc(-c2cc3nc(-c4cnc5[nH]ccc5c4)nc(N4CCOCC4)c3s2)cs1 [Compound 429, 4-(4-morpholino-2-(1H-pyrrolo[2,3-b]pyridin-5-yl)thieno[3,2-d]pyrimidin-6-yl)thiazol-2-amine] | >10 | >10 | >10 |  |  |  |
| O=c1cc(N2CCOCC2)oc2c(-c3ccccc3)cccc12 [LY294002, 2-(4-morpholinyl)-8-phenyl-4H-1-benzopyran-4-one] |  |  |  | lack of aqueous solubility | rapidly metabolized in animals | poor pharmacokinetics |
